# Assay results: patent US10849904B2, “Methods for treatment of retinal disease by photoreceptor gene expression modulation” (University of Washington, priority 2015, dated 2020)
# Columns and labels:
# [1] = tested on: intact retinas from P12 wild type mice; test: P12 mouse retinal explant culture, qPCR for rod gene expression; assay type: cell-based; settings: P12 explants, 1 μM, 2 days, vs DMSO
# Excerpt: To identify functional Nr2e3 antagonists, compounds were cheminformatically searched and structural analogs of a putative Nr2e3 interacting compound with unknown function were collected. See FIGS. 2 and 4 for the structures of the compounds. The collected compounds were then screened in a physiologically relevant primary culture assay using intact retinas from postnatal day 12-13 (P12-13) C57BL/6 mice for suppression of Rho expression (See FIG. 6A). After a 2 day culture period with media containing DMSO or compounds at 1 μM, the retinas were collected and assessed Rho expression by qPCR. Rho was chosen because it is a well-described target of Nr2e3 in rod photoreceptors. […] This analysis also provided an initial structure-activity relationship.
# Nr2e3 loss-of-function mutations lead to a reduction in rod gene expression. To determine whether the same was true for PR1 (FIG. 6D), explant cultures of P12 retina as above were treated and assayed for other rod photoreceptor genes. After 2 days in culture, PR1 decreased the expression of the rod specific genes Nrl, Nr2e3, Rho, Gnat1, and Pde6b compared to DMSO treatment by qPCR analysis (FIG. 6C). […] To determine the dose-response relationship between PR1 concentration and expression of rod genes, retinas from P12 mice were explanted in media containing DMSO or 0.1, 1, 5, or 10 μM PR1 for 2-3 days and assayed Nrl, Nr2e3, and Rho expression by qPCR. […] PR1 was tested to determine whether it could cause a reduction in Rho expression in human rod photoreceptors as well. Pairs of 113 day post-conception retinas were explanted in media with DMSO or 10 μM PR1 for 7 or 23 days. After 7 and 23 days in culture, PR1 decreased the expression of Rho compared to DMSO treatment (FIG. 6F), similar to the effect observed in mouse retinal explants.
# Intact retinas without RPE from mice of various strains and ages as indicated were explanted on 0.4 μm pore tissue culture inserts (Millipore) as previously described (Ueki, Y., et al., P53 is required for the developmental restriction in Muller glial proliferation in mouse retina. Glia, 2012. 60(10): p. 1579-89; Ueki, Y., et al., A transient wave of BMP signaling in the retina is necessary for Muller glial differentiation. Development, 2015. 142(3): p. 533-43. Full media (DMEM/F12 (1:1) containing 1% dialyzed FBS, 1% Pen Strep, 0.3% D+ glucose, 2% B27, and 1% N2) changes were performed every other day and small molecules were used at 0.1 μM to 10 μM. Where indicated, EdU (Invitrogen) was included in the media at 5 μg/mL and visualized by staining with the Click-iT EdU Alexa Fluor kit (Thermo Fisher Scientific). For human retinal explant cultures, tissue from 113 day post-conception fetuses was obtained from the University of Washington Birth Defects Laboratory and explanted on 0.4 μm pore tissue culture inserts (Millipore) in media (Neurobasal A with 1% FBS, 1% Pen Strep, 1% N2, 1% B27) containing 10 μM Photoregulin1 or an equal volume of DMSO.
# RNA was isolated using TRIzol (Invitrogen) and cDNA was synthesized using the iScript cDNA synthesis kit (Bio-Rad) following an intervening DNase treatment with RQ1 RNase-free DNase (Promega). SSO Fast (Bio-Rad) was used for quantitative real-time PCR. For analysis, values were normalized to Gapdh and ΔΔCt between DMSO and compound-treated samples was expressed as percent of DMSO treated controls (100*2^ΔΔCt). Two-way Student's t-tests were performed on ΔCt values.
# Thrb (Trβ2) = test: Cone gene expression, Thrb (FIG. 5)
Compound,relative rhodopsin (Rho) expression [1],"cone gene expression, Thrb (Trβ2) (Thrb (Trβ2))"
Cc1cccc(C(=O)NC(C(=O)Nc2ncc(C)s2)C(C)C)c1 (stereo not shown) [CA95],reducing rhodopsin expression,increase
Cc1cc(C)cc(NC(=O)CCc2nc3sc4c(c3c(=O)[nH]2)CCC4)c1 [CA8801],reducing rhodopsin expression,–
Cc1cccc(C(=O)NCC(=O)Nc2ncc(C)s2)c1 [CA9513],reducing rhodopsin expression,–
